# Entries after “also recorded” stand apart in the source; their conditions may differ.
# How the values were obtained:
# [1] = system: IL-2 production in Jurkat T cells; assay: IL-2 ELISA on supernatants of activated Jurkat T cells; type: cell-based, human; details: Jurkat T cells with PHA and PMA, 48 hours
# Method: To examine the effect of MNK-specific inhibitors on PD-1 expression, Jurkat cells (Clone E6.1, ATCC, transformed T cells) were used, which express PD-1 when activated through T cell receptor (TCR) signaling. Briefly, Jurkat cells were grown in 1×RPMI with 1× Pen/Strep, and 10% FBS, then about 3×10^6 Jurkat cells were activated in presence of 1 μg/mL PHA (Sigma) and 50 ng/mL PMA (Sigma). Test Cells were treated simultaneously with various concentrations of MNK-specific inhibitor Compound 107 (0, 0.01, 0.1, 1, 3 and 10 μM). After 48 hours, culture supernatants were harvested and examined via sandwich ELISA for the presence of IL-2 using human IL-2 ELISA DuoSet® (R&D Systems, Minneapolis, Minn.). […] After fixation, cells were washed twice with flow buffer and re-suspended in flow buffer and assessed for fluorescence using BD Accuri C6 flow cytometer. Data were analyzed using the C6 cytometer software (BD Biosciences, San Jose, Calif.).
# [2] = system: Jurkat cells; assay: Jurkat T cell viability (fixable dead cell stain); type: cell-based
# Method: To examine the effect of MNK-specific inhibitors on PD-1 expression, Jurkat cells (Clone E6.1, ATCC, transformed T cells) were used, which express PD-1 when activated through T cell receptor (TCR) signaling. Briefly, Jurkat cells were grown in 1×RPMI with 1× Pen/Strep, and 10% FBS, then about 3×10^6 Jurkat cells were activated in presence of 1 μg/mL PHA (Sigma) and 50 ng/mL PMA (Sigma). Test Cells were treated simultaneously with various concentrations of MNK-specific inhibitor Compound 107 (0, 0.01, 0.1, 1, 3 and 10 μM). After 48 hours, culture supernatants were harvested and examined via sandwich ELISA for the presence of IL-2 using human IL-2 ELISA DuoSet® (R&D Systems, Minneapolis, Minn.). The level of PD-1 on Jurkat cells was examined by incubating cells with fixable dead cell stain (1:20,000; BD Biosciences, San Jose, Calif.) for 15 minutes at 4° C., washed twice with flow staining buffer (1×PBS, 4% FBS and 1 mM EDTA), incubated with human FcR block, then contacted with allophycocyanin (APC) conjugated anti-PD-1 antibody (Biolegend, San Diego, Calif.) for 30 minutes at 4° C., washed two times with flow buffer, and finally cells were fixed with fixation buffer for 20 minutes at 4° C. After fixation, cells were washed twice with flow buffer and re-suspended in flow buffer and assessed for fluorescence using BD Accuri C6 flow cytometer. Data were analyzed using the C6 cytometer software (BD Biosciences, San Jose, Calif.).
# [3] = system: PD-L1; assay: PD-L1 expression in tumor cell lines (Western blot); type: cell-based, human; details: MDA-MB-231, HBL-1, A549, MDA-MB-361, AMO-1; 0.01-10 μM, 48 hours, vs DMSO
# [4] = system: PD-1 expression on human Pan-T cells; assay: PD-1 expression on primary T cells activated with anti-CD3/anti-CD28 beads (flow cytometry); type: cell-based
# Method: (§1) About 3×10^5 T cells were activated using anti-CD3/anti-CD28 magnetic beads as per manufacturer's protocol (Dynabeads®, Invitrogen, Carlsbad, Calif.). Briefly, a ratio of fresh primary T cells to beads used to activate the T cells was 1:1 (for every 80,000 T cells, 2 μl of beads were added). Test cells were treated simultaneously with various concentrations of MNK-specific inhibitor Compound 107 (0.01, 0.1, 1, 3 and 10 μM). After 48 hours, culture supernatants were harvested and examined via sandwich ELISA for the presence of IL-2 using human IL-2 ELISA DuoSet® (R&D Systems, Minneapolis, Minn.). […] After fixation, cells were washed twice with flow buffer and re-suspended in flow buffer and assessed for fluorescence using BD Accuri C6 cytometer. Data were analyzed using the C6 cytometer software (BD Biosciences, San Jose, Calif.).
# [5] = system: LAG3 expression on human Pan-T cells; assay: LAG3 expression on primary T cells activated with anti-CD3/anti-CD28 beads (flow cytometry); type: cell-based
# Method: as §1
# [6] = system: primary T cells; assay: Primary T cell viability (fixable dead cell stain); type: cell-based; details: T cells activated with anti-CD3/anti-CD28 beads
# Method: as §1
# [7] = system: HLA class II protein HLA-DQA1; assay: HLA-DQA1 protein level in TMD8 cells (Western blot); type: cell-based, human
# Method: (§2) The ability of MNK-specific inhibitor compounds to regulate the level of HLA class II proteins was evaluated in a diffuse large B-cell lymphoma (DLBCL) cell line, TMD8. Briefly, human DLBCL cell line TMD8 (ATCC), was cultured in RPMI media supplemented with penicillin G (100 U/ml), streptomycin (100 μg/ml), and 10% FBS in a humidified atmosphere of 5% CO2 maintained at 37° C. About 2-4×10^6 TMD8 cells were seeded in 10 cm plates 24 hours prior to drug treatment. The following day, cells were treated with either vehicle control (DMSO) or Compound 107 at the indicated concentration (FIG. 7). Cells were harvested 48 hours post-treatment.
# (§3) Treated cells were harvested, washed with PBS and lysed in 1×RIPA buffer (Thermo Fisher) for 15 minutes at 4° C. Lysates were clarified by centrifugation for 15 min at 14,000×rpm and supernatants were collected. Protein concentration in the soluble fraction was determined using the BCA protein assay (Thermo Scientific). Proteins were resolved on 4-20% Bis-Tris gradient polyacrylamide gel (Invitrogen) and transferred to nitrocellulose membrane. […] The blots were washed, scanned, and specific proteins detected using the LI-COR Odyssey infrared imager. […]
# [8] = system: phospho-eIF4E; assay: eIF4E phosphorylation in TMD8 cells (Western blot); type: cell-based, human
# Method: as §2, §3
# [9] = system: CT26 tumor; assay: CT26 tumor re-challenge of previously treated mice; type: in vivo, mouse
# Method: Previously treated allograft mice that responded to therapy or were tumor-free from each treatment group (8 days post-treatment) were tested for development of long-term immune memory by re-implanting new CT26 tumors and assessing for tumor growth compared to naïve BALB/c mice. Briefly, treated mice were re-implanted and naïve were implanted for the first time with tumor cells in the left flank region in 0.1 ml of growth media and an equal 0.1 ml volume ratio of Matrigel® matrix (1:1 volume to volume ratio), as before. Tumors in these untreated mice were measured following implantation as described herein.
# [10] = primary T cells, anti-CD3/anti-CD28 beads, 0.01-10 μM
structure (smiles),measurement,setting,value
Cc1cc(Nc2cc(N)ncn2)c(=O)n2c1C(=O)NC21CCCCC1.Cl [Compound 107],IL-2 production,[1],did not alter cytokine production; also recorded: did not detectably alter IL-2 production
same,Cell Death,"[2]; Jurkat T cell assay, MNK-specific inhibitors",− (− = 0-10%)
same,cell viability (percentage of dead cells),[2]; Jurkat cells with PHA and PMA,no effect on cell viability; also recorded: unaffected
same,expression of PD-L1,[3],reduced in a dose dependent manner
same,maximum inhibition of PD-1 expression,"[4]; T cells activated with anti-CD3/anti-CD28 beads, 10 μM, 48 hours",76%
same,PD-1 expression,[4]; [10],reduced in a dose dependent manner
same,reduction in the expression of LAG3,"[5]; CD3/CD28 antibody bead activated T cells, 10 μM",62%
same,LAG3 expression,[5]; [10],reduced in a dose dependent manner
same,T cell viability (percentage of dead cells),[6],no effect on T cell viability; also recorded: unaffected
same,EC50,"[7]; Homo sapiens, TMD8, 48 h, read-out: EC50 of increase in HLA-DQA1 protein level",~300 nM
same,HLA-DQA1 protein level,"[7]; TMD8 cells, 48 hours, 300 nM or 10 μM",dose dependent increase
same,phosphorylation of eIF4E,[8],potently inhibited
same,Mean Tumor Volume (mm^3) ± SEM,[9]; 8 days after tumor implant,22.4 ± 4.5 mm^3
same,Tumor Formation,"[9]; animals with measurable tumor / group, no further drug treatment",0/4
